Source: patent US20080207641A1 (Synta Pharmaceuticals Corp., priority 2006, published 2008)
Converted amounts (≈) assume the structure as drawn. Like-named read-outs stand apart in the source and are kept apart here.

Assays:
IL-2 production = test: Inhibition of IL-2 production in PHA-activated Jurkat cells (ELISA); assay type: cell-based; details: Homo sapiens, 20 h, PHA 2.5 μg/mL, 20 hours at 37° C., IL-2 ELISA
Experimental: Jurkat cells were placed in a 96 well plate (0.5 million cells per well in 1% FBS medium) then a test compound of this invention was added at different concentrations. After 10 minutes, the cells were activated with PHA (final concentration 2.5 μg/mL) and incubated for 20 hours at 37° C. under CO2. The final volume was 200 μL. Following incubation, the cells were centrifuged and the supernatants collected and stored at −70° C. prior to assaying for IL-2 production. A commercial ELISA kit (IL-2 Eli-pair, Diaclone Research, Besancon, France) was used to detect production of IL-2, from which dose response curves were obtained. The IC50 value was calculated as the concentration at which 50% of maximum IL-2 production after stimulation was inhibited versus a non-stimulation control.

[1] = Solubility in simulated gastric fluids; assay type: physicochemical
Source text: Solubility in Simulated Gastric Fluids

Compound | IC50 (IL-2 production) | solubility ([1]; simulated gastric fluid) | solubility [1]
CC1=C(c2cnc(NC(=O)c3c(F)cccc3F)cn2)CN(c2nnn(C)n2)CC1 [Compound 2, 2,6-difluoro-N-(5-(4-methyl-1-(2-methyl-2H-tetrazol-5-yl)-1,2,5,6-tetrahydropyridin-3-yl)pyrazin-2-yl)benzamide] | 35 to 75 nM | 50 µM (≈ 20.6 µg/mL) | –
CC1=C(c2cnc(NC(=O)c3c(F)cccc3F)cn2)CN(c2nnnn2C)CC1 [Compound 3, 2,6-difluoro-N-(5-(4-methyl-1-(1-methyl-1H-tetrazol-5-yl)-1,2,5,6-tetrahydropyridin-3-yl)pyrazin-2-yl)benzamide] | > 1000 nM | – | –
CC1=C(c2cnc(NC(=O)c3ccncc3F)cn2)CN(c2nccs2)CC1 [Compound 4, 3-fluoro-N-(5-(4-methyl-1-(thiazol-2-yl)-1,2,5,6-tetrahydropyridin-3-yl)pyrazin-2-yl)isonicotinamide] | ≤ 35 nM | 50 µM (≈ 19.8 µg/mL) | –
CC1=C(c2ccc(NC(=O)c3c(F)cccc3F)nc2)CN(c2nnn(C)n2)CC1 [Compound 6, 2,6-difluoro-N-(5-(4-methyl-1-(2-methyl-2H-tetrazol-5-yl)-1,2,5,6-tetrahydropyridin-3-yl)pyridin-2-yl)benzamide] | ≤ 35 nM | 50 µM (≈ 20.6 µg/mL) | –
CC1=C(c2ccc(NCc3c(F)cccc3F)nc2)CN(c2nccs2)CC1.Cl.Cl [Compound 7, N-(2,6-difluorobenzyl)-5-(4-methyl-1-(thiazol-2-yl)-1,2,5,6-tetrahydropyridin-3-yl)pyridin-2-amine dihydrochloride] | 35 to 75 nM | 100 µM | –
CC1=C(c2ccc(NC(=O)c3c(F)cccc3F)cn2)CN(c2nccs2)CC1 [Compound 11, 2,6-difluoro-N-(6-(4-methyl-1-(thiazol-2-yl)-1,2,5,6-tetrahydropyridin-3-yl)pyridin-3-yl)benzamide] | 75 to 150 nM | 100 µM (≈ 41.2 µg/mL) | –
CC1=C(c2ccc(NC(=O)C3c4ccccc4-c4ccccc43)cc2)CN(c2nccs2)CC1 [Compound 17, N-(4-(4-methyl-1-(thiazol-2-yl)-1,2,5,6-tetrahydropyridin-3-yl)phenyl)-9H-fluorene-9-carboxamide] | 150 to 1000 nM | – | –
O=C(Nc1ccc(-c2cc(-c3nccs3)ccc2Cl)cc1)c1c(O)cccc1F [Compound 18, N-(2′-chloro-5′-(thiazol-2-yl)biphenyl-4-yl)-2-fluoro-6-hydroxybenzamide] | 75 to 150 nM | – | –
CC1=C(c2cnc(NC(=O)c3c(F)cccc3Cl)cn2)CN(c2nccs2)CC1 [Compound 20, 2-chloro-6-fluoro-N-(5-(4-methyl-1-(thiazol-2-yl)-1,2,5,6-tetrahydropyridin-3-yl)pyrazin-2-yl)benzamide] | ≤ 35 nM | – | 150 µM (≈ 64.5 µg/mL)
CC1=C(c2ccc(NC(=O)c3ccc(F)cc3F)nc2)CN(c2nnn(C)n2)CC1 [Compound 21, 2,4-difluoro-N-(5-(4-methyl-1-(2-methyl-2H-tetrazol-5-yl)-1,2,5,6-tetrahydropyridin-3-yl)pyridin-2-yl)benzamide] | – | – | 150 µM (≈ 61.7 µg/mL)
CC1=C(c2ccc(NC(=O)c3c(F)cccc3F)nc2)CN(c2nccn2C)CC1 [Compound 22, 2,6-difluoro-N-(5-(4-methyl-1-(1-methyl-1H-imidazol-2-yl)-1,2,5,6-tetrahydropyridin-3-yl)pyridin-2-yl)benzamide] | > 1000 nM | – | –
CC1=C(c2ccc(NC(=O)c3c(F)cccc3Cl)nc2)CN(c2nnn(C)n2)CC1 [Compound 23, 2-chloro-6-fluoro-N-(5-(4-methyl-1-(2-methyl-2H-tetrazol-5-yl)-1,2,5,6-tetrahydropyridin-3-yl)pyridin-2-yl)benzamide] | > 1000 nM | 25 µM (≈ 10.7 µg/mL) | –
CC1=C(c2cnc(NC(=O)c3ccc(F)cc3F)cn2)CN(c2nnn(C)n2)CC1 [Compound 24, 2,4-difluoro-N-(5-(4-methyl-1-(2-methyl-2H-tetrazol-5-yl)-1,2,5,6-tetrahydropyridin-3-yl)pyrazin-2-yl)benzamide] | 75 to 150 nM | 50 µM (≈ 20.6 µg/mL) | –
Cn1nnc(N2CCC(Cl)=C(c3ccc(NC(=O)c4c(F)cccc4F)nc3)C2)n1 [Compound 25, N-(5-(4-chloro-1-(2-methyl-2H-tetrazol-5-yl)-1,2,5,6-tetrahydropyridin-3-yl)pyridin-2-yl)-2,6-difluorobenzamide] | ≤ 35 nM | 50 µM (≈ 21.6 µg/mL) | –
O=C(Nc1ccc(C2=C(Cl)CCN(c3nccs3)C2)cn1)c1c(F)cccc1F [Compound 26, N-(5-(4-chloro-1-(thiazol-2-yl)-1,2,5,6-tetrahydropyridin-3-yl)pyridin-2-yl)-2,6-difluorobenzamide] | ≤ 35 nM | 100 µM (≈ 43.3 µg/mL) | –
O=C(Nc1ccc(C2=C(Cl)CCN(c3nccs3)C2)cn1)c1ccc(F)cc1F [Compound 27] | 75 to 150 nM | 50 µM (≈ 21.6 µg/mL) | –
CC(C)=CC(=O)Nc1ccc(C2=C(C)CCN(c3nnn(C)n3)C2)cn1 [Compound 28, 3-methyl-N-(5-(4-methyl-1-(2-methyl-2H-tetrazol-5-yl)-1,2,5,6-tetrahydropyridin-3-yl)pyridin-2-yl)but-2-enamide] | – | 50 µM (≈ 17.7 µg/mL) | –
CC1=C(c2ccc(NC(=O)c3ccccc3F)nc2)CN(c2nnn(C)n2)CC1 [Compound 29, 2-fluoro-N-(5-(4-methyl-1-(2-methyl-2H-tetrazol-5-yl)-1,2,5,6-tetrahydropyridin-3-yl)pyridin-2-yl)benzamide] | 35 to 75 nM | 50 µM (≈ 19.7 µg/mL) | –
CC1=C(c2cnc(NC(=O)c3c(F)cccc3F)cn2)CN(c2ncco2)CC1 [Compound 30, 2,6-difluoro-N-(5-(4-methyl-1-(oxazol-2-yl)-1,2,5,6-tetrahydropyridin-3-yl)pyrazin-2-yl)benzamide] | 35 to 75 nM | – | 150 µM (≈ 59.6 µg/mL)
CC1=C(c2cnc(NC(=O)c3ccccc3F)cn2)CN(c2nccs2)CC1 [Compound 31, 2-fluoro-N-(5-(4-methyl-1-(thiazol-2-yl)-1,2,5,6-tetrahydropyridin-3-yl)pyrazin-2-yl)benzamide] | 35 to 75 nM | 25 µM (≈ 9.89 µg/mL) | –
CC1=C(c2cnc(NC(=O)c3c(F)cncc3F)cn2)CN(c2nccs2)CC1.Cl [Compound 34, 3,5-difluoro-N-(5-(4-methyl-1-(thiazol-2-yl)-1,2,5,6-tetrahydropyridin-3-yl)pyrazin-2-yl)isonicotinamide hydrochloride] | – | 25 µM | –
CC1=C(c2cnc(NC(=O)c3c(F)cccc3Cl)cn2)CN(c2nnn(C)n2)CC1 [Compound 35, 2-chloro-6-fluoro-N-(5-(4-methyl-1-(2-methyl-2H-tetrazol-5-yl)-1,2,5,6-tetrahydropyridin-3-yl)pyrazin-2-yl)benzamide] | – | 25 µM (≈ 10.7 µg/mL) | –

Continued, values first:

IC50 (IL-2 production) | solubility ([1]; simulated gastric fluid) | solubility [1] | Compound
75 to 150 nM | – | – | Cc1cncnc1C(=O)Nc1ccc(C2=C(C=O)CCN(c3nccs3)C2)cc1 [Compound 1, N-(4-(4-formyl-1-(thiazol-2-yl)-1,2,5,6-tetrahydropyridin-3-yl)phenyl)-5-methylpyrimidine-4-carboxamide]
≤ 35 nM | 50 µM (≈ 19.9 µg/mL) | – | CC1=C(c2ccc(NCc3c(F)cccc3F)cc2)CN(c2nccs2)CC1 [Compound 5, N-(2,6-difluorobenzyl)-4-(4-methyl-1-(thiazol-2-yl)-1,2,5,6-tetrahydropyridin-3-yl)aniline]
75 to 150 nM | – | – | CC1=C(c2ccc(NC(=O)c3c(F)cccc3C(F)(F)F)cc2)CN(c2nccs2)CC1 [Compound 8, 2-fluoro-N-(4-(4-methyl-1-(thiazol-2-yl)-1,2,5,6-tetrahydropyridin-3-yl)phenyl)-6-(trifluoromethyl)benzamide]
35 to 75 nM | – | – | CC1=C(c2ccc(NC(=O)c3ccccc3C(F)(F)F)cc2)CN(c2nccs2)CC1 [Compound 9, N-(4-(4-methyl-1-(thiazol-2-yl)-1,2,5,6-tetrahydropyridin-3-yl)phenyl)-2-(trifluoromethyl)benzamide]
75 to 150 nM | 50 µM (≈ 22.2 µg/mL) | – | CC1=C(c2ccc(NC(=O)c3c(Cl)cccc3Cl)cc2)CN(c2nccs2)CC1 [Compound 10, 2,6-dichloro-N-(4-(4-methyl-1-(thiazol-2-yl)-1,2,5,6-tetrahydropyridin-3-yl)phenyl)benzamide]
≤ 35 nM | 50 µM (≈ 19.7 µg/mL) | – | CC1=C(c2ccc(NC(=O)c3ccccc3F)cc2)CN(c2nccs2)CC1 [Compound 12, 2-fluoro-N-(4-(4-methyl-1-(thiazol-2-yl)-1,2,5,6-tetrahydropyridin-3-yl)phenyl)benzamide]
150 to 1000 nM | 50 µM (≈ 20.5 µg/mL) | – | CC1=C(c2ccc(NC(=O)c3c(O)cccc3F)cc2)CN(c2nccs2)CC1 [Compound 13, 2-fluoro-6-hydroxy-N-(4-(4-methyl-1-(thiazol-2-yl)-1,2,5,6-tetrahydropyridin-3-yl)phenyl)benzamide]
150 to 1000 nM | – | – | CSc1ncccc1C(=O)Nc1ccc(C2=C(C)CCN(c3nccs3)C2)cc1 [Compound 14, N-(4-(4-methyl-1-(thiazol-2-yl)-1,2,5,6-tetrahydropyridin-3-yl)phenyl)-2-(methylthio)nicotinamide]
≤ 35 nM | – | 150 µM (≈ 56.4 µg/mL) | CCC(Cl)C(=O)Nc1ccc(C2=C(C)CCN(c3nccs3)C2)cc1 (centres unmarked) [Compound 15, 2-chloro-N-(4-(4-methyl-1-(thiazol-2-yl)-1,2,5,6-tetrahydropyridin-3-yl)phenyl)butanamide]
≤ 35 nM | – | 150 µM (≈ 61.7 µg/mL) | CC1=C(c2ccc(NC(=O)c3ccc(F)cc3F)cc2)CN(c2nccs2)CC1 [Compound 16, 2,4-difluoro-N-(4-(4-methyl-1-(thiazol-2-yl)-1,2,5,6-tetrahydropyridin-3-yl)phenyl)benzamide]
– | – | 150 µM | CC1=C(c2ccc(NC(=O)c3ccc(F)cc3F)cc2)CN(c2nccs2)CC1.Cl [Compound 19, 2,4-difluoro-N-(4-(4-methyl-1-(thiazol-2-yl)-1,2,5,6-tetrahydropyridin-3-yl)phenyl)benzamide hydrochloride]
